The assay concerns the target T1, HCV polymerase (Hepatitis C virus genotype 1b, UniProt P26663).
T1 construct: a region encoding NS5B (J Virol 1991 March, 65(3), 1105-13, 544 amino acids after deletion of 47 amino acids on the C-terminal); 6xHis (C); made in house; host or cells: Escherichia coli
The assay is described as follows: biochemical. More on the design: species or system HCV BK strain. The procedure, abridged: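 His-tagged NS5B (BK strain, 47-aa C-terminal deletion, E. coli-expressed) at 0.5 μg/ml copied 5 μg/ml run-off RNA bearing the HCV 3′ UTR with 2 μM UTP plus [3H]UTP, 50 μM ATP/GTP, in pH 7.5 Tris with 5 mM MgCl2, 25 °C, 90 min. TCA-precipitated RNA was counted and IC50 calculated.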

This note sets out measurements from patent US20070049593A1 (priority 2004, published 2007).

As usually defined, the IC50 is the point on the concentration scale where inhibition reaches its midpoint.

Where a name gives a salt, the structure may show the parent alone. Read-outs that look alike come from different tables or passages of the source. Where only a bound is given, the exact number is not on record here.

T1 sequence (P26663 2420-2963): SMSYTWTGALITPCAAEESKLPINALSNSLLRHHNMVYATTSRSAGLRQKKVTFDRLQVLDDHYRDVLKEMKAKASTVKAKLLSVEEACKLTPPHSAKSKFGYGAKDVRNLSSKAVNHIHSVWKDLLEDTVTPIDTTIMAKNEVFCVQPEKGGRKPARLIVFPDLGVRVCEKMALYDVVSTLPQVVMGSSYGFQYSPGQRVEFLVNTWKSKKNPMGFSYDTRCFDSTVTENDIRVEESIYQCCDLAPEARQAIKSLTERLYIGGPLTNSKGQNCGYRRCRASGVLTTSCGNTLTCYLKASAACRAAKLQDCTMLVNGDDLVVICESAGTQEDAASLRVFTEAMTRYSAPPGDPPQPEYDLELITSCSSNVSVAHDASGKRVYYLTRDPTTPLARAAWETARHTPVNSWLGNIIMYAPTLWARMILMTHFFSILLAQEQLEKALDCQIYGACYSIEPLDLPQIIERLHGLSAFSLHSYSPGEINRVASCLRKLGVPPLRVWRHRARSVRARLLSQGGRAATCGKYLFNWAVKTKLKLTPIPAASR

On to `O=C(O)c1ccc2c(C3CCCCC3)c3n(c2c1)CCN(CC(=O)N1CC=CCC1)c1ccccc1-3` [Example 1-136, 13-cyclohexyl-5-[2-(3,6-dihydro-2H-pyridin-1-yl)-2-oxoethyl]-6,7-dihydro-5H-benzo[5,6][1,4]diazepino[7,1-a]indole-10-carboxylic acid], for which the IC50 was < 0.1 µM.

`CC(C)COc1ccc2c(c1)N(CCN1CCCCC1)CCn1c-2c(C2CCCCC2)c2ccc(C(=O)O)cc21` [Example 1-373, 13-cyclohexyl-3-isobutoxy-5-[2-(piperidin-1-yl)ethyl]-6,7-dihydro-5H-benzo[5,6][1,4]diazepino[7,1-a]indole-10-carboxylic acid dihydrochloride]: for the setting “25° C., 90 min, [5,6-3H]UTP incorporation into RNA, read-out: HCV polymerase inhibitory activity IC50”, the IC50 is < 0.1 µM.

With `COc1ccc2c(c1)OCCn1c-2c(C2CCCCC2)c2ccc(C(=O)NC(C)(C)c3nc(N(C)C)c4ccc(C(=O)O)cc4n3)cc21` [Example 2-404, 2-{1-[(12-cyclohexyl-3-methoxy-6,7-dihydro-5-oxa-7a-azadibenzo[a,e]azulene-9-carbonyl)amino]-1-methylethyl]-4-dimethylaminoquinazoline-7-carboxylic acid], the IC50 is < 0.1 µM.

Take `CC(C)(NC(=O)c1ccc2c(C3CCCCC3)c3n(c2c1)CCOc1ccccc1-3)c1nc2cc(C(=O)O)ccc2[nH]1` [Example 2-214, 2-{1-[(12-cyclohexyl-6,7-dihydro-5-oxa-7a-azadibenzo[a,e]azulene-9-carbonyl)amino]-1-methylethyl}-1H-benzimidazole-5-carboxylic acid]: the IC50 is < 0.1 µM.

Consider `CC(=O)N1CCC(CCN(C(C)=O)c2cccc3c2OCCn2c-3c(C3CCCCC3)c3ccc(C(=O)O)cc32)CC1` [Example 2-233, 4-(N-acetyl-N-[2-(1-acetylpiperidin-4-yl)ethyl]amino}-12-cyclohexyl-6,7-dihydro-5-oxa-7a-azadibenzo[a,e]azulene-9-carboxylic acid], for which the IC50 is < 0.1 µM.

For `CN1CCn2c(c(C3CCCCC3)c3ccc(C(=O)O)cc32)-c2ccccc21` [Example 1-20, 13-cyclohexyl-5-methyl-6,7-dihydro-5H-benzo[5,6][1,4]diazepino[7,1-a]indole-10-carboxylic acid], the IC50 was < 0.1 µM.

On to `O=C(O)CNC(=O)C1(NC(=O)c2ccc3c(C4CCCCC4)c4n(c3c2)CCOc2ccccc2-4)CCC1` [Example 2-55, ({1-[(12-cyclohexyl-6,7-dihydro-5-oxa-7a-azadibenzo[a,e]azulene-9-carbonyl)amino]cyclobutanecarbonyl}amino)acetic acid], for which the IC50 was < 0.1 µM.

Consider `CC(C)(NC(=O)c1ccc2c(C3CCCCC3)c3n(c2c1)CCOc1ccccc1-3)C(=O)N[C@H]1CC[C@H](O)CC1` [Example 2-177, N-[1-(trans-4-hydroxycyclohexylcarbamoyl)-1-methylethyl]-12-cyclohexyl-6,7-dihydro-5-oxa-7a-azadibenzo[a,e]azulene-9-carboxamide], for which the IC50 is < 0.1 µM.

With `COC(=O)[C@H](Cc1ccc(F)cc1)NC(=O)c1ccc2c(C3CCCCC3)c3n(c2c1)CCOc1cc(OC)ccc1-3` [Example 2-279, methyl (S)-2-[(12-cyclohexyl-3-methoxy-6,7-dihydro-5-oxa-7a-azadibenzo[a,e]azulene-9-carbonyl)amino]-3-(4-fluorophenyl)propionate], the IC50 was < 0.1 µM.

Turning to `COc1ccc2c(c1)N(CC(C)C)CCn1c-2c(C2CCCCC2)c2ccc(C(=O)O)cc21` [Example 1-483, 13-cyclohexyl-5-isobutyl-3-methoxy-6,7-dihydro-5H-benzo[5,6][1,4]diazepino[7,1-a]indole-10-carboxylic acid], the IC50 is < 0.1 µM.

`CC(C)(NC(=O)c1ccc2c(C3CCCCC3)c3n(c2c1)CCOc1ccccc1-3)c1ccc(O)cc1` [Example 2-230, N-[1-(4-hydroxyphenyl)-1-methylethyl]-12-cyclohexyl-6,7-dihydro-5-oxa-7a-azadibenzo[a,e]azulene-9-carboxamide]: the IC50 was < 0.1 µM.

With `COc1ccc2c(c1)OCCn1c-2c(C2CCCCC2)c2ccc(C(=O)N[C@@H](Cc3ccc(N)cc3)c3csc(C)n3)cc21` [Example 2-414, N—[(S)-2-(4-aminophenyl)-1-(2-methylthiazol-4-yl)ethyl]-12-cyclohexyl-3-methoxy-6,7-dihydro-5-oxa-7a-azadibenzo[a,e]azulene-9-carboxamide], the IC50 was < 0.1 µM.

As to `COCCOc1cc2[nH]c(C3(NC(=O)c4ccc5c(C6CCCCC6)c6n(c5c4)CCOc4cc(OC)ccc4-6)CCC3)nc2cc1C(=O)O` [Example 2-437, 2-{1-[(12-cyclohexyl-3-methoxy-6,7-dihydro-5-oxa-7a-azadibenzo[a,e]azulene-9-carbonyl)amino]cyclobutyl}-6-(2-methoxyethoxy)-1H-benzimidazole-5-carboxylic acid], the IC50 was < 0.1 µM.

In the case of `Cc1ccc2c(c1)N(CCC1CCCN(C3CCCC3)C1)CCn1c-2c(C2CCCCC2)c2ccc(C(=O)O)cc21` (centres unmarked) [Example 1-380, 13-cyclohexyl-5-[2-(1-cyclopentylpiperidin-3-yl)ethyl]-3-methyl-6,7-dihydro-5H-benzo[5,6][1,4]diazepino[7,1-a]indole-10-carboxylic acid dihydrochloride], the IC50 is < 0.1 µM.

As to `CC(=O)N1CCC(CN2CCn3c(c(C4CCCCC4)c4ccc(C(=O)O)cc43)-c3ccccc32)CC1` [Example 1-118, 5-(1-acetylpiperidin-4-ylmethyl)-13-cyclohexyl-6,7-dihydro-5H-benzo[5,6][1,4]diazepino[7,1-a]indole-10-carboxylic acid monohydrochloride], the IC50 was < 0.1 µM.

Regarding `CN(C)CCN1CCn2c(c(C3CCCCC3)c3ccc(C(=O)O)cc32)-c2ccc(OCCNCCO)cc21` [Example 1-576, 13-cyclohexyl-5-(2-dimethylaminoethyl)-3-[2-(2-hydroxyethylamino)ethoxy]-6,7-dihydro-5H-benzo[5,6][1,4]diazepino[7,1-a]indole-10-carboxylic acid trihydrochloride], the IC50 was < 0.1 µM.

As for `O=C(O)c1ccc2c(C3CCCCC3)c3n(c2c1)CCN(CCN1CCCC2CCCCC21)c1ccccc1-3` (centres unmarked) [Example 1-144, 13-cyclohexyl-5-[2-(octahydroquinolin-1-yl)ethyl]-6,7-dihydro-5H-benzo[5,6][1,4]diazepino[7,1-a]indole-10-carboxylic acid dihydrochloride], the IC50 was < 0.1 µM.

Regarding `CCOCCCN(CC)CCCN1CCn2c(c(C3CCCCC3)c3ccc(C(=O)O)cc32)-c2ccc(Cl)cc21` [Example 1-433, 3-chloro-13-cyclohexyl-5-{3-[N-(3-ethoxypropyl)-N-ethylamino]propyl}-6,7-dihydro-5H-benzo[5,6][1,4]diazepino[7,1-a]indole-10-carboxylic acid dihydrochloride], the IC50 is < 0.1 µM.

Turning to `O=C(O)c1ccc2c(C3CCCCC3)c3n(c2c1)CCN(CCC1CCCNC1)c1ccccc1-3` (centres unmarked) [Example 1-165, 13-cyclohexyl-5-[2-(piperidin-3-yl)ethyl]-6,7-dihydro-5H-benzo[5,6][1,4]diazepino[7,1-a]indole-10-carboxylic acid dihydrochloride], the IC50 is < 0.1 µM.

`CCCc1ccc2c(c1)N(CCN1CCCC(COC)C1)CCn1c-2c(C2CCCCC2)c2ccc(C(=O)O)cc21` (centres unmarked) [Example 1-346, 13-cyclohexyl-5-[2-(3-methoxymethylpiperidin-1-yl)ethyl]-3-propyl-6,7-dihydro-5H-benzo[5,6][1,4]diazepino[7,1-a]indole-10-carboxylic acid dihydrochloride]: the IC50 is < 0.1 µM.

As for `CN(CCN1CCn2c(c(C3CCCCC3)c3ccc(C(=O)O)cc32)-c2ccccc21)C1CCN(S(C)(=O)=O)C1` (centres unmarked) [Example 1-252, 13-cyclohexyl-5-{2-[N-(1-methanesulfonylpyrrolidin-3-yl)-N-methylamino]ethyl}-6,7-dihydro-5H-benzo[5,6][1,4]diazepino[7,1-a]indole-10-carboxylic-acid], the IC50 is < 0.1 µM.

Consider `CNC(=O)c1cccc(COc2ccc3c(c2)N(CCN(C)C)CCn2c-3c(C3CCCCC3)c3ccc(C(=O)O)cc32)c1` [Example 1-590, 13-cyclohexyl-5-(2-dimethylaminoethyl)-3-(3-methylcarbamoylbenzyloxy)-6,7-dihydro-5H-benzo[5,6][1,4]diazepino[7,1-a]indole-10-carboxylic acid dihydrochloride], for which the IC50 is < 0.1 µM.

Turning to `Cc1ccc2c(c1)N(CCN1CCCC(CO)C1)CCn1c-2c(C2CCCCC2)c2ccc(C(=O)O)cc21` (centres unmarked) [Example 1-435, 13-cyclohexyl-5-[2-(3-hydroxymethylpiperidin-1-yl)ethyl]-3-methyl-6,7-dihydro-5H-benzo[5,6][1,4]diazepino[7,1-a]indole-10-carboxylic acid dihydrochloride], the IC50 is < 0.1 µM.

Regarding `CC(C)(NC(=O)c1ccc2c(C3CCCCC3)c3n(c2c1)CCOc1ccccc1-3)C(=O)Nc1ccc(C(N)=O)cc1` [Example 2-193, N-[1-(4-carbamoylphenylcarbamoyl)-1-methylethyl]-12-cyclohexyl-6,7-dihydro-5-oxa-7a-azadibenzo[a,e]azulene-9-carboxamide], the IC50 is < 0.1 µM.

`O=C(O)c1ccc2c(C3CCCCC3)c3n(c2c1)CCN(CCN1CCC(C(F)(F)F)CC1)c1ccccc1-3` [Example 1-172, 13-cyclohexyl-5-[2-(4-trifluoromethylpiperidin-1-yl)ethyl]-6,7-dihydro-5H-benzo[5,6][1,4]diazepino[7,1-a]indole-10-carboxylic acid dihydrochloride]: the IC50 was < 0.1 µM.

Turning to `COc1ccc2c(c1)OCCn1c-2c(C2CCCCC2)c2ccc(C(=O)N[C@@H](Cc3ccc(O)cc3)C(=O)N(C)C)cc21` [Example 2-262, N—[(S)-1-dimethylcarbamoyl-2-(4-hydroxyphenyl)ethyl]-12-cyclohexyl-3-methoxy-6,7-dihydro-5-oxa-7a-azadibenzo[a,e]azulene-9-carboxamide], the IC50 is < 0.1 µM.
